Results taken from paper PMC6033213, “Structurally simple synthetic 1, 4-disubstituted piperidines with high selectivity for resistant Plasmodium falciparum” (BMC Pharmacology & Toxicology, 2018).
In brackets after ≈: the same amount, converted by molar mass. Like-named read-outs stand apart in the source and are kept apart here.

Experiments:
P. falciparum Dd2 [1] = assay: Secondary screen: parasite growth inhibition by parasite lactate dehydrogenase (pLDH) assay, Dd2; assay type: cell-based, Plasmodium falciparum; design: key to Antiplasmodial activity class on Dd2: active, IC50 < 5 μg/mL; moderately active: 5 μg/mL ≤ IC50 ≤ 10 μg/mL; weakly active: IC50 ≥ 10 μg/mL; details: for IC50 / IC90: Plasmodium falciparum; for IC90: read-out: IC90
Source text: (§1) Two Plasmodium falciparum parasite strains were obtained from MR4 (Manassas, Virginia, USA) and stored in liquid nitrogen. The 3D7 (MRA-102) strain is chloroquine- sensitive while Dd2 is a multidrug resistant clone of the W2 strain with resistance to chloroquine, quinine, mefloquine, sulfadoxine and pyrimethamine. Parasite stocks were thawed, grown and maintained in continuous culture by the candle jar technique with some modifications. The culture consisted of 4% hematocrit suspension of human O+ erythrocytes in RPMI-1640 medium (10.43 g/L supplemented with 0.01 mg/mL gentamycin, 25 mM Hepes buffer, 25 mM NaHCO3) and 5 g Albumax II. All culture reagents were obtained from Sigma-Aldrich Inc. (Germany) except for Albumax II (Gibco; Invitrogen, USA). Cultures were incubated at 37 °C in 5% CO2.
(§2) After incubation the plate was frozen at − 20 °C for the parasite lactate dehydrogenase (pLDH) assay.
(§3) The reagent preparation and assay were done as described. The plates were subjected to 3 freeze-thaw cycles to haemolyze the red blood cells. One hundred microlitre (100 μL) of Malstat reagent was added to each required well of a fresh microtitre plate followed by 20 μL of culture. Then 25 μL of nitroblue tetrazolium/phenazine ethosulfate (NBT/PES) solution was added initiating the reaction. The plates were then incubated for an hour in the dark and optical density (OD) measured at 650 nm (Emax-Molecular Devices Corporation, California, USA).
(§4) For the parasite lactate dehydrogenase assay, the background OD of blank wells containing non parasitized red blood cells was subtracted from values of all test wells. OD values from control wells void of test compound represented the maximum pLDH activity. The OD values obtained were used to determine the IC50, and IC90 values using the software IC Method IC Estimator V1.2 [18], an online calculator of IC values. Each assay was done twice in duplicates and the 4 IC50 or CC50 values obtained were pooled together and expressed as mean IC ± S.D.

[2] = test system: LLC-MK2 monkey kidney epithelial cells; assay: Cytotoxicity test, MTT/formazan assay; assay type: cell-based; details: for Mean SI: mean of the Selectivity Indices of the 3D7 and Dd2 parasite strains; for SI on 3D7: CC50 on LLC-MK2 cells/IC50 on P. falciparum 3D7; for SI on Dd2: CC50 on LLC-MK2 cells/IC50 on P. falciparum Dd2
Description: (§5) This was done on monkey kidney epithelial cells, LLC-MK2, (ATCC, USA) as described except for use of same culture medium and conditions for P falciparum above. The cells, 10,000 in 100 μL medium per well, were cultured for 24 h to become confluent and attached to the bottom of the well and the medium replaced with 100 μL of fresh medium. […] A negative control without test substance was included. The plates were incubated for 72 h at 37 °C in 5% CO2 and cell viability were determined using microscopy to observe dead cells which appeared dark and deformed. This was followed by the MTT/formazan assay as described above with slight modification. The CC50 values (50% cytotoxic concentration) for each compound was obtained using Microsoft excel 2007. The selectivity index (SI) was calculated using the formula:3 SI=CC50onLLC‐MK2cells/IC50onP.falciparum
as §4

[3] = Cytotoxicity test, MTT/formazan assay; assay type: cell-based, monkey; details: monkey, LLC-MK2 monkey kidney epithelial cells; LLC-MK2 cells, 72 h, MTT/formazan
Description: as §5, §4

P. falciparum 3D7 = assay: Secondary screen: parasite growth inhibition by parasite lactate dehydrogenase (pLDH) assay, 3D7; assay type: cell-based, Plasmodium falciparum; design: key to Antiplasmodial activity class on 3D7: active, IC50 < 5 μg/mL; moderately active: 5 μg/mL ≤ IC50 ≤ 10 μg/mL; weakly active: IC50 ≥ 10 μg/mL; details: for IC50 / IC90: Plasmodium falciparum; for IC90: read-out: IC90
Source text: as §1, §2, §3, §4

P. falciparum Dd2 [4] = assay: Primary screen: in vitro parasite growth inhibition at a single concentration, fluorescence microscopy with acridine orange; assay type: cell-based, Plasmodium falciparum; details: Plasmodium falciparum; 40 μg/mL, 48 h, Dd2 chloroquine-resistant strain
Source text: as §1
A primary screen for antiplasmodial activity at a single concentration was performed against Dd2 as described with some modifications, to identify active compounds. Stock solutions of compound (1 mg/mL) was initially dissolved in dimethylsulfoxide (DMSO), then gentamycin-free incomplete medium (without Albumax II) added giving 2% final DMSO; the solutions were sterilized and stored. The positive control solutions (artemether and quinine at 5 μg/mL) were prepared similarly. The compounds were tested at a final concentration of 40 μg/mL in duplicate in a 96 well microtitre plate (100 μL per well), followed by 100 μL of 1% parasitized blood. Positive and negative controls (no drug) were included. The plate was incubated under the same culture conditions as above for 48 h and antiplasmodial activity determined by fluorescence microscopy (Leitz Wetzlar, Germany) with acridine orange stain at × 40 magnification under oil immersion. The number of infected erythrocytes (Ei) was counted in 20 monolayer fields (approximately 1500 cells per field) and the percentage parasitaemia was calculated using the formula:1 %parasitaemia=∑Ei/30,000×100
The percentage inhibition per concentration was then obtained using the formula below:2 percentage%inhibition=%parasitaemia of control well‐%parasitaemia of test well/%parasitaemia of control well×100

[5] = Dd2 chloroquine-resistant strain, pLDH assay, mean ± S.D., read-out: IC50
[6] = Dd2 chloroquine-resistant strain, pLDH assay, mean ± S.D.
[7] = 3D7 chloroquine-sensitive strain, pLDH assay, mean ± S.D., read-out: IC50
[8] = 3D7 chloroquine-sensitive strain, pLDH assay, mean ± S.D.
[9] = Dd2 strain, class by IC50, read-out: Antiplasmodial activity class on Dd2
[10] = 3D7 strain, class by IC50, read-out: Antiplasmodial activity class on 3D7

OC(c1ccc(F)cc1)C1CCN(Cc2ccc(Cl)cc2)CC1 (centres unmarked) [Compound 9, [1-(4-chlorobenzyl)piperidin-4-yl] [4-fluorophenyl] methanol]
Antiplasmodial activity class on Dd2 (P. falciparum Dd2 [1]; Dd2 strain, class by IC50): active | IC50 (P. falciparum Dd2 [1]; [5]): 1.67 ± 0.24 µg/mL (≈ 5 µM) | IC90 (P. falciparum Dd2 [1]; [6]): 16.1 ± 2.13 µg/mL (≈ 48.2 µM) | Mean SI [2]: 156.25 ± 9.5 | CC50 at 72 h [3]: 250 µg/mL (≈ 749 µM) | Antiplasmodial activity class on 3D7 (P. falciparum 3D7; 3D7 strain, class by IC50): active | IC50 (P. falciparum 3D7; [7]): 1.53 ± 0.24 µg/mL (≈ 4.58 µM) | IC90 (P. falciparum 3D7; [8]): 16.1 ± 2.13 µg/mL (≈ 48.2 µM) | inhibition at 40 µg/mL (P. falciparum Dd2 [4]): 93.2%

CO[C@H]1O[C@@H]2O[C@@]3(C)CC[C@H]4[C@H](C)CC[C@@H]([C@H]1C)[C@@]24OO3 [Art, artemether, reference compound]
IC50 (P. falciparum Dd2 [1]; [5]): 0.039 µg/mL (≈ 0.131 µM) | IC90 (P. falciparum Dd2 [1]; [6]): 0.046 µg/mL (≈ 0.154 µM) | IC50 (P. falciparum 3D7; [7]): 0.045 µg/mL (≈ 0.151 µM)

O=[N+]([O-])c1ccccc1CN1CCC(C(O)c2ccc(F)cc2)CC1 (centres unmarked) [Compound 10, [1-(2-nitrobenzyl)piperidin-4-yl] [4-fluorophenyl] methanol]
IC50 (P. falciparum Dd2 [1]; [5]): 14 ± 1.76 µg/mL (≈ 40.6 µM) | IC90 (P. falciparum Dd2 [1]; [6]): 35.3 ± 2.02 µg/mL (≈ 102 µM) | IC50 (P. falciparum Dd2 [1]; [9]): ≥ 10 µg/mL | IC50 (P. falciparum 3D7; [7]): 13.5 ± 0.54 µg/mL (≈ 39.3 µM) | IC90 (P. falciparum 3D7; [8]): 19.11 ± 0.02 µg/mL (≈ 55.5 µM) | IC50 (P. falciparum 3D7; [10]): ≥ 10 µg/mL | inhibition at 40 µg/mL (P. falciparum Dd2 [4]): 79.7%

O=C(c1ccc(F)cc1)C1CCN(Cc2ccc(Br)cc2)CC1 [Compound 5, [1-(4-bromobenzyl)piperidin-4-yl] [4-fluorophenyl] methanone]
IC50 (P. falciparum Dd2 [1]; [5]): 14.5 ± 1.34 µg/mL (≈ 38.6 µM) | IC90 (P. falciparum Dd2 [1]; [6]): 32.3 ± 4.17 µg/mL (≈ 85.9 µM) | IC50 (P. falciparum Dd2 [1]; [9]): ≥ 10 µg/mL | IC50 (P. falciparum 3D7; [7]): 10 ± 0.3 µg/mL (≈ 26.6 µM) | IC90 (P. falciparum 3D7; [8]): 17.2 ± 0.97 µg/mL (≈ 45.8 µM) | IC50 (P. falciparum 3D7; [10]): ≥ 10 µg/mL | inhibition at 40 µg/mL (P. falciparum Dd2 [4]): 64.8%

O=C(c1ccc(F)cc1)C1CCN(Cc2ccc(Cl)c(Cl)c2)CC1 [Compound 2, [1-(3,4-dichlorobenzyl)piperidin-4-yl] [4-fluorophenyl] methanone]
IC50 (P. falciparum Dd2 [1]; [5]): 5.97 ± 0.02 µg/mL (≈ 16.3 µM) | IC90 (P. falciparum Dd2 [1]; [6]): 24.9 ± 4.14 µg/mL (≈ 67.9 µM) | IC50 (P. falciparum Dd2 [1]; [9]): 5 to 10 µg/mL (≈ 13.7 to 27.3 µM) | SI on 3D7 [2]: 43.51 | SI on Dd2 [2]: 31.37 | Mean SI [2]: 37.44 ± 8.58 | CC50 at 72 h [3]: 188 µg/mL (≈ 512 µM) | Antiplasmodial activity class on 3D7 (P. falciparum 3D7; 3D7 strain, class by IC50): active | IC50 (P. falciparum 3D7; [7]): 4.3 ± 3.75 µg/mL (≈ 11.7 µM) | IC90 (P. falciparum 3D7; [8]): 17.61 ± 0.06 µg/mL (≈ 48.1 µM) | inhibition at 40 µg/mL (P. falciparum Dd2 [4]): 82.7%

OC(c1ccc(F)cc1)C1CCN(Cc2ccc(F)cc2)CC1 (centres unmarked) [Compound 7, [1-(4-fluorobenzyl)piperidin-4-yl] [4-fluorophenyl] methanol]
Antiplasmodial activity class on Dd2 (P. falciparum Dd2 [1]; Dd2 strain, class by IC50): active | IC50 (P. falciparum Dd2 [1]; [5]): 2.52 µg/mL (≈ 7.94 µM) | IC90 (P. falciparum Dd2 [1]; [6]): 17.7 ± 4.34 µg/mL (≈ 55.8 µM) | SI on 3D7 [2]: 93.67 | SI on Dd2 [2]: 148.34 | Mean SI [2]: 121.01 ± 38.7 | CC50 at 72 h [3]: 375 µg/mL (≈ 1180 µM) | Antiplasmodial activity class on 3D7 (P. falciparum 3D7; 3D7 strain, class by IC50): active | IC50 (P. falciparum 3D7; [7]): 4 ± 0.67 µg/mL (≈ 12.6 µM) | IC90 (P. falciparum 3D7; [8]): 14.6 ± 1.52 µg/mL (≈ 46 µM) | inhibition at 40 µg/mL (P. falciparum Dd2 [4]): 81.3%

C=C[C@H]1C[N@@]2CC[C@H]1C[C@H]2[C@H](O)c1ccnc2ccc(OC)cc12 [QN, quinine, reference compound]
IC50 (P. falciparum Dd2 [1]; [5]): 0.127 µg/mL (≈ 0.391 µM) | IC50 (P. falciparum 3D7; [7]): 0.171 µg/mL (≈ 0.527 µM)
